Reference: article PMC5307958 (Scientific Reports, 2017)
Where a SMILES comes first, the peptide text is derived from it. Bridges are numbered along the chain shown (N, C = ends).

Test system: slo-1(+) worm BK channel gene expressed in slo-1(null) worms
Test: C. elegans crawl speed, slo-1(+) rescue on slo-1 null background
Assay type: in vivo, Caenorhabditis elegans
Conditions: 750 μM LS3, 30 min; transgenic slo-1(+) on slo-1(null) background; vs. slo-1(null): p < 0.001, N = 78–162
Experimental: Worms were cultivated at 20 °C as described with OP50 bacteria. Worms cultured on plates contaminated with fungi or other bacteria were excluded from this study. The reference wild-type strain was N2 Bristol. The reference slo-1(null) strain and background for transgenic strains was NM1968, harboring the previously characterized null allele, js379[29]. Multi-site gateway technology (Invitrogen) was used to construct plasmids. […] of the native slo-1 promoter (Pslo-1) and the traditional unc-54 UTR were used in combination with slo-1a(cDNA)::mCherry for a rescue construct. To test rescue with the human BK channel, an hslo(ZERO isoform, cDNA)::mCherry version was constructed. The slo-1(+) and hslo(+) plasmids were injected at a concentration of 20 and 10 ng/μl, respectively. The co-injection reporter PCFJ90 (1.25 ng/μl) was used to ensure proper transformation of the arrays. As such, JPS345 carried vxEx345, an extrachromosomal array containing [Pslo-1::slo-1::mCherry::unc-54UTR,Pmyo-2::mCherry::unc-54UTR]. JPS340 carried […], an extrachromosomal array containing [Pslo-1::hslo::mCherry::unc-54UTR,Pmyo-2::mCherry::unc-54UTR].
Age-matched day one adults were cleaned of bacteria by letting them crawl around on an unseeded plate and then moved into a puddle of NGM or peptide dissolved in NGM on another unseeded plate. […]

CC(C)C[C@@H]1NC(=O)CNC(=O)[C@H](CCCNC(=N)N)NC(=O)[C@H](CCCNC(=N)N)NC(=O)[C@@H](N)CSSC[C@@H](C(=O)O)NC(=O)[C@H](C(C)C)NC(=O)[C@H](CCC(N)=O)NC(=O)[C@H](C(C)C)NC1=O [LS3] (H-CRRGLVQVC-OH; disulfide 1-9; N-terminus and C-terminus assumed)
LS3-induced slowing response (reduction in crawl speed): rescued
